Data: publication PMC11684029, “Discovery of VU6024578/BI02982816: An mGlu1 Positive Allosteric Modulator with Efficacy in Preclinical Antipsychotic and Cognition Models” (Journal of Medicinal Chemistry, 2024)
Like-named read-outs stand apart in the source and are kept apart here.

Columns and labels:
hmGlu1 = tested on: hmGlu1; parameters: method as in PMID 30116027, PMID 34731619, PMID 35643819, PMID 25137254, PMID 11606768; settings: Figure 1; read-out: hmGlu1 PAM EC50; cited from earlier work
mGlu4 = tested on: mGlu4; parameters: method as in PMID 30116027, PMID 34731619, PMID 35643819, PMID 25137254, PMID 11606768; settings: Figure 1; cited from earlier work
Sprague–Dawley rats = assay: catalepsy (latency to withdraw); format: in vivo; settings: rat, positive control, 1.5 mg/kg i.p.
Method: In order to enable our target validation work, we first profiled PAM 19d in a rat locomotor battery to ensure that pharmacodynamic efficacy was not mistaken for gross effects on locomotion.[20] […] PK was performed in parallel to establish a PK/PD relationship.[24]
Control rats were injected with 1.5 mg/kg of haloperidol i.p. (dissolved in 8% lactic acid and taken to volume of 50 mL with sterile water) and were returned to their home cage for 90 min. Cataleptic behavior is determined by placing the forelimbs on a bar raised 6 cm above the table and recording the amount of time it takes for the rat to withdraw the forelimbs with a cutoff of 60 s. Data are expressed as mean latency to withdraw + SEM or percent inhibition of catalepsy + SEM.

male beagles = assay: adverse events in dog PK; format: in vivo; settings: 0.5 mg/kg IV
Method: (§1) Deeper profiling began with IV dog PK (0.5 mg/kg, n = 3 male beagles). […] Was this a mechanism-based toxicity in dog? Could there be dog-specific pharmacology of mGlu1 activation? Were these AEs derived from the 19d chemotype? Could a mGlu1/mGlu5 heterodimer be responsible for the observed AEs? […] In an attempt to address the chemotype question, we evaluated PAM 4 (VU6004909),[8] an early generation rodent in vivo tool compound, for the first time in dog PK. […] of the study with 19d, PAM 4 produced no AEs in dog. […] Therefore, more molecular pharmacology and PK studies as well as additional chemically distinct mGlu1 PAM chemotypes are required to understand the AEs elicited by an mGlu1 PAM in dogs, an otherwise very promising target for the treatment of schizophrenia.

IV dog PK = format: in vivo; settings: male, beagle, plasma, 0.5 mg/kg IV; for C0: iv, 0.5 mg/kg
Method: as §1

dog mGlu1 = dog mGlu1 (Canis lupus familiaris, UniProt A0A8I3NTE8); assay: mGlu1 PAM assay, dog receptor; format: cell-based
rat mGlu1 = rat mGlu1 (Rattus norvegicus, UniProt P23385); assay: mGlu1 calcium mobilization PAM assay; format: cell-based; settings: PAM, calcium flux
[1] = plasma protein binding, equilibrium dialysis; format: in vitro ADME, human; settings: fraction unbound
Method: (§2) The protein binding of each compound was determined in plasma via equilibrium dialysis employing RED Plates (ThermoFisher Scientific, Rochester, NY). Plasma was added to the 96 well plate containing test compound and mixed thoroughly for a final concentration of 5 μM. Subsequently, an aliquot of the plasma-compound mixture was transferred to the cis chamber (red) of the RED plate, with an phosphate buffer (25 mM, pH 7.4) in the trans chamber. The RED plate was sealed and incubated for 4 h at 37 °C with shaking. At completion, aliquots from each chamber were diluted 1:1 with either plasma (cis) or buffer (trans) and transferred to a new 96 well plate, at which time ice-cold acetonitrile containing internal standard (50 ng/mL carbamazepine) (2 volumes) was added to extract the matrices. The plate was centrifuged (3000 rcf, 10 min) and supernatants transferred and diluted 1:1 (supernatant: water) into a new 96 well plate, which was then sealed in preparation for LC/MS/MS analysis. Each compound was assayed in triplicate within the same 96-well plate. Fraction unbound was determined using the following equation [drawing 1]

[2] = rat IV plasma:brain level (PBL) PK; format: in vivo
[3] = intrinsic clearance, predicted hepatic clearance; format: in vitro ADME, rat; settings: in vitro predicted hepatic clearance
Method: (§3) Human or rat hepatic microsomes (0.5 mg/mL) and 1 μM test compound were incubated in 100 mM potassium phosphate pH 7.4 buffer with 3 mM MgCl2 at 37 °C with constant shaking. After a 5 min preincubation, the reaction was initiated by addition of NADPH (1 mM). At selected time intervals (0, 3, 7, 15, 25, and 45 min), aliquots were taken and subsequently placed into a 96-well plate containing cold acetonitrile with internal standard (50 ng/mL carbamazepine). Plates were then centrifuged at 3000 rcf (4 °C) for 10 min, and the supernatant was transferred to a separate 96-well plate and diluted 1:1 with water for LC/MS/MS analysis. The in vitro half-life (T1/2, min, eq 1), intrinsic clearance (CLint, mL/min/kg, eq 2) and subsequent predicted hepatic clearance (CLhep, mL/min/kg, eq 3) was determined employing the following equations: [drawing 2] 1 where k represents the slope from linear regression analysis of the natural log percent remaining of test compound as a function of incubation time [drawing 3] 2
(§4) ^ascale-up factors: of 20 (human) or 45 (rat) [drawing 4] 3 where Qh (hepatic blood flow, mL/min/kg) is 21 (human) or 70 (rat).

[4] = plasma protein binding, equilibrium dialysis; format: in vitro ADME, rat; settings: fraction unbound
Method: as §2

brain homogenate binding = format: in vitro ADME, rat; settings: fraction unbound
[5] = intrinsic clearance, predicted hepatic clearance; format: in vitro ADME, human; settings: in vitro predicted hepatic clearance
Method: as §3, §4

human mGlu1 = target: T1, human mGlu1 (Homo sapiens, UniProt Q13255); assay: mGlu1 calcium mobilization (triple-add) PAM assay; format: cell-based; settings: PAM, calcium flux, EC20 glutamate
T1 construct: expressed in transfected cells; pcDNA5/TO)
Method: Tetracycline-inducible human mGlu1 WT-T-REx-293 cells (Wu et al, Science 2014) were cultured at 37 °C in Dulbecco’s Modified Eagle Medium (DMEM) growth medium containing 10% Tet-tested FBS, 2 mM L-glutamine, 20 mM HEPES, 0.1 mM nonessential amino acids, 1 mM sodium pyruvate, antibiotic/antimycotic, 100 μg/mL hygromycin and 5 μg/mL blasticidin in the presence of 5% CO2. […] The mutant stable cell lines were generated in the same manner as the WT as previously described and cultured in the growth medium described above.
To determine the potency of mGlu1 PAMs in calcium assays, Ca flux was measured as previously described in ACS Chem. Bio. 2014, 9, 2334–2346. Briefly, the day before the assay, human mGlu1 WT-T-REx-293 cells were plated in black-walled, clear-bottomed, poly-D-lysine coated 96-well plates at 80,000 cells/100 μL assay medium (DMEM supplemented with 10% dialyzed FBS, 20 mM HEPES, and 1 mM sodium pyruvate) containing 50 ng/mL of tetracycline to induce mGlu1 expression. The next day, media was removed and the cells were incubated with 50 μL of 1.15 μM Fluo-4 AM dye solution prepared in assay buffer (buffer (Hank’s balanced salt solution, 20 mM HEPES, and 2.5 mM probenecid) for 45 min at 37 °C, the dye was removed and replaced with 45 μL of assay buffer. Then, calcium flux was measured using Flexstation II (Molecular Devices, Sunnyvale, CA). Compounds serially diluted at half log concentrations in DMSO were further diluted in assay buffer. The compounds or DMSO vehicle were added to cells and incubated for 2.5 min and an EC20 concentration of glutamate was added and incubated for 1 min. An ECmax concentration of glutamate was also added to cells that were incubated with DMSO vehicle to accurately calculate the EC20 calcium response. Data were normalized by subtracting the basal florescent peak before EC20 agonist addition from the maximal peak elicited by EC20 agonist and PAMs. Using GraphPad Prism 5.0, the concentration response curves were generated and the potencies of the mGlu1 PAMs were determined.

T1 sequence (Q13255 19-1194): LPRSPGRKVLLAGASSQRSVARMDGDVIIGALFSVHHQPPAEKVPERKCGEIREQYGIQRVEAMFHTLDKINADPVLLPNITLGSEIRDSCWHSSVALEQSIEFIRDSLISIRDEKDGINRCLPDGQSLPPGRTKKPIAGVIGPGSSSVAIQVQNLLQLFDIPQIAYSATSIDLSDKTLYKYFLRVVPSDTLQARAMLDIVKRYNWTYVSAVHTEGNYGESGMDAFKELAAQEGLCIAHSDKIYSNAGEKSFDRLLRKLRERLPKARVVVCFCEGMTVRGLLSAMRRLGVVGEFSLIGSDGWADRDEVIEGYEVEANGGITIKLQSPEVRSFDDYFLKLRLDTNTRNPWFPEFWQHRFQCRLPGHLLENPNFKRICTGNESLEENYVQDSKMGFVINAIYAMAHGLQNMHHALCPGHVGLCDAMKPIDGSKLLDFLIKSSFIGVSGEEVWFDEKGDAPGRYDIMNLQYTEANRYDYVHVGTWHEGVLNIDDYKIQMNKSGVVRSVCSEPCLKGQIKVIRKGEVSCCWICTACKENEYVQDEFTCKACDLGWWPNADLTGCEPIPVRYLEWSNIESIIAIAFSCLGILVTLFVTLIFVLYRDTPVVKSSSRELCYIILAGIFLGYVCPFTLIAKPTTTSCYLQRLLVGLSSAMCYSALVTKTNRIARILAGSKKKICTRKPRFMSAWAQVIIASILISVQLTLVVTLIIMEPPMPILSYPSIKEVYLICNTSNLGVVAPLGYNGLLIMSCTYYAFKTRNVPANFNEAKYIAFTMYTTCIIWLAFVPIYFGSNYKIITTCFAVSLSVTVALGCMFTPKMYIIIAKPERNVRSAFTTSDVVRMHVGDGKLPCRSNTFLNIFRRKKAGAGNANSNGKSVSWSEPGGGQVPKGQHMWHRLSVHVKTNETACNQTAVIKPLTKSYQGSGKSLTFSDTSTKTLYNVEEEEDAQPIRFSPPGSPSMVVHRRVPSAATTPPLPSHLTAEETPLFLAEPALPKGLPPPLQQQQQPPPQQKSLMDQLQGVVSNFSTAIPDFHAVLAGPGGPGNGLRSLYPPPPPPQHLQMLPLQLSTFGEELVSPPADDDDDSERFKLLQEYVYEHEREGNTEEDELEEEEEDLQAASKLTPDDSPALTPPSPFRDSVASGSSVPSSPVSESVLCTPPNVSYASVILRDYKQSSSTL
Chain of rat mGlu1 (P23385 19-1199): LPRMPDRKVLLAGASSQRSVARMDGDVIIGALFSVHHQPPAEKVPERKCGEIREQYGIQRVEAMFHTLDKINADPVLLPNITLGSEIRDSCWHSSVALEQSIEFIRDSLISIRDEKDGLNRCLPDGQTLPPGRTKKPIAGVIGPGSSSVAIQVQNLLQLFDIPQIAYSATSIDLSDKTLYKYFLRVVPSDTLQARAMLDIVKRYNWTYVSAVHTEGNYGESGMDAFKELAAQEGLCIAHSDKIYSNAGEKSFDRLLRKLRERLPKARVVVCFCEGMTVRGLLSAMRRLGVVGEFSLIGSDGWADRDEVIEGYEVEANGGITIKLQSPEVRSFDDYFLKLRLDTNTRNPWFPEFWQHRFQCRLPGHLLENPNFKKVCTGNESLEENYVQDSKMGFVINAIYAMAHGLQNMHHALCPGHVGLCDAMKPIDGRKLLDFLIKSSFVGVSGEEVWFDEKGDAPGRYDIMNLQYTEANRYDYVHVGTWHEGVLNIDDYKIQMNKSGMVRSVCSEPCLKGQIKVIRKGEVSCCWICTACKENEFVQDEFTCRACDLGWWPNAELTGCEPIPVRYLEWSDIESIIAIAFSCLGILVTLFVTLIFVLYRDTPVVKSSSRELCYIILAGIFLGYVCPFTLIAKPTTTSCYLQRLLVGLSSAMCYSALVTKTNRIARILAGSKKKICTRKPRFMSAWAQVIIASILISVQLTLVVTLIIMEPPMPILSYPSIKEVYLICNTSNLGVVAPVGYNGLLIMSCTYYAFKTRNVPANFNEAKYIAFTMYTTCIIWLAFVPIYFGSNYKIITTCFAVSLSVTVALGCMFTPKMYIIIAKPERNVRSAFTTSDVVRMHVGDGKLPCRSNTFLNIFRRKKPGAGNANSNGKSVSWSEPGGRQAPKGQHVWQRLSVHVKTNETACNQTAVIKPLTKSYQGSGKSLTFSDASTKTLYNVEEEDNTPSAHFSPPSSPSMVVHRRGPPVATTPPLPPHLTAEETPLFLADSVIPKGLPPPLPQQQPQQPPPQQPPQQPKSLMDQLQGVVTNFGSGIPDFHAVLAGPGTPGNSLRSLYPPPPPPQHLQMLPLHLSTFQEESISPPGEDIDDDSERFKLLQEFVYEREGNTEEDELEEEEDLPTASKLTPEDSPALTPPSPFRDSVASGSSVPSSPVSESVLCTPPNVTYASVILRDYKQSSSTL
Chain of dog mGlu1 (A0A8I3NTE8 30-1195): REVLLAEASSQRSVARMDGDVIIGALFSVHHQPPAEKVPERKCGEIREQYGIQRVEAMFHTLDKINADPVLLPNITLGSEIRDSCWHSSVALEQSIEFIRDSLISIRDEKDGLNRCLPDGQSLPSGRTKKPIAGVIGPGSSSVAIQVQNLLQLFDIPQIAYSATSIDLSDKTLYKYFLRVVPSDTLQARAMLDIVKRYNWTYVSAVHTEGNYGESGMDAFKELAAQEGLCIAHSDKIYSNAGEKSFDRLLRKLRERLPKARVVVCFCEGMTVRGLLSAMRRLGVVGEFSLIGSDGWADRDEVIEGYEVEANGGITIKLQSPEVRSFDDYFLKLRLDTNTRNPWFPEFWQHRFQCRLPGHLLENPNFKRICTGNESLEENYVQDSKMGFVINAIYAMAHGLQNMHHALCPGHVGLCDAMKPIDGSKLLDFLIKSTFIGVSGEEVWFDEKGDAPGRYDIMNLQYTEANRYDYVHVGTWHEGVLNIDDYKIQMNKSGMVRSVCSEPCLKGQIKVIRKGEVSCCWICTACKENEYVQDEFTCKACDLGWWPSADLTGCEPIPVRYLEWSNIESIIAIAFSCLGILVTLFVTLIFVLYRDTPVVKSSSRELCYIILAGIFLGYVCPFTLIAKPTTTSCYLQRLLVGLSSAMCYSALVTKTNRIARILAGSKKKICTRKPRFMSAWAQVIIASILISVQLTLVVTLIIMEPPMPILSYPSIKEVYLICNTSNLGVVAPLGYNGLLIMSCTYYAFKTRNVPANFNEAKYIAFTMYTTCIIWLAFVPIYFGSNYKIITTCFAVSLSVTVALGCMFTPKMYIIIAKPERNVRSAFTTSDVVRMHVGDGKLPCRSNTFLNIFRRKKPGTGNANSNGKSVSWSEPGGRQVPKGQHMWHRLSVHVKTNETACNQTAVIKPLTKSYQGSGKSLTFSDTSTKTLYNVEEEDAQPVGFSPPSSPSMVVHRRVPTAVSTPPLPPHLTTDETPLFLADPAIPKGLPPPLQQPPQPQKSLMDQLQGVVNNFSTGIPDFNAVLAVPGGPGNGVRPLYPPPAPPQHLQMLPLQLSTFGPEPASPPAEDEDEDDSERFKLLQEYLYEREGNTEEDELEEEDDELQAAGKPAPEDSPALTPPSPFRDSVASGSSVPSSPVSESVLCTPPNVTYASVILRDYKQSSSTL

For `Cc1ccoc1C(=O)Nc1ccc(N2C(=O)c3cccc(F)c3C2=O)c(Cl)c1` [Compound 3], the EC50 (hmGlu1) is given as 32 nM and the “selectivity vs. mGlu4” value (mGlu4) is given as ~ 35 fold.
With `O=C(CCCN1CCC(O)(c2ccc(Cl)cc2)CC1)c1ccc(F)cc1` [haloperidol, reference compound] the catalepsy (Sprague–Dawley rats) was “induced profound catalepsy”.
In the case of `Cc1ccc2c(c1)C(=O)N(c1ccc(NC(=O)c3occc3C)c(F)c1)C2=O` [Compound 4, reference compound], the “adverse events (AEs) in dog” value (male beagles) is reported as “no AEs”, the half-life (IV dog PK) is reported as 16.8 h and the clearance (IV dog PK; read-out: CLp) is reported as 14 mL/min/kg. The Vd (IV dog PK; read-out: Vss) was 12 L/kg, the C0 (IV dog PK; read-out: C0 exposure, total) was 1100 nM and the C0 (IV dog PK; read-out: C0 exposure, unbound) was 36.4 nM. The “selectivity vs. mGlu4” value (mGlu4) was ~ 790 fold and the EC50 (dog mGlu1) was 400 nM.
For `O=C(NCc1cnn2ccccc12)c1cc(-c2ccco2)ccc1Cl` [Compound 9k, 2-Chloro-5-(furan-2-yl)-N-(pyrazolo[1,5-a]pyridin-3-ylmethyl)benzamide], the EC50 (rat mGlu1) was 109 nM, the “rat mGlu1 Glumax” value (rat mGlu1) was 92% and the human fuplasma [1] was 0.036. It also gave a Kp at 15 min ([2]; Sprague-Dawley, 0.25 mg/kg/compound, rat IV PBL, brain:plasma) of 0.27, a clearance ([2]; Sprague-Dawley, plasma, intravenous, rat PK PBL experiment, read-out: CLp) of 67.2 mL/min/kg and an MRT ([2]; rat PK PBL experiment) of 0.355 h. The t1/2 ([2]; rat PK PBL experiment) was 0.397 h, the “CLhep, rat” value [3] was 63.7 mL/min/kg and the rat fuplasma [4] was 0.022. The rat fubrain (brain homogenate binding) was 0.021, the “CLhep, human” value [5] was 19.8 mL/min/kg and the EC50 (human mGlu1) was 51 nM. The “human mGlu1 Glumax” value (human mGlu1) was 53%.
In the case of `O=C(Nc1ccc(N2C(=O)c3cccc(Cl)c3C2=O)c(Cl)c1)c1ncccc1Cl` [Compound 2], the EC50 (hmGlu1) is listed as 390 nM and the “selectivity vs. mGlu4” value (mGlu4) is listed as ~ 30 fold.
For `Cc1ccoc1C(=O)Nc1ccc(N2Cc3c(Cl)cccc3C2=O)c(Cl)c1` [Compound 5], the EC50 (hmGlu1) is given as 211 nM and the “selectivity vs. mGlu4” value (mGlu4) is given as ~ 50 fold.
